Read-outs that look alike come from different tables or passages of the source.
Columns and labels:
H460 tumors = experiment: Xenograft cancer study in mice, H460, oral administration (Example 20e); format: in vivo, mouse
Source text: Female Balb/C, immunologically deficient recipient mice (6-8 weeks old) had tumors implanted therein. The Balb/C donor mice were used to grow H460 tumors, which tumors were excised therefrom and subsequently sectioned into small fragments about 2 mm^3 in size. The Balb/C recipient mice were given brief general anesthesia and then one H4602 mm^3 tumor fragment from the donor mice was implanted into each of the left and right flank of the recipient mice using a trocar needle. Once the tumors in the recipient mice had reached a measurable size of about 4×4 mm, as measured by calipers placed against each mouse skin, the recipient mice were randomly placed into treatment groups, 8 per group and the oral treatment was started. 8 mice were in the positive control group (“Cisplatin”) and 8 mice were in the negative control group and received only water (“Control”). Treatment was given exclusively via the drinking bottle shared between the mice in each Treatment group. Cisplatin was given by intraperitoneal injection on day 0. Tumor size was assessed five times per week using a pair of calipers and mouse weight was also obtained by a scale, such measuring occurring until the mouse died (or was removed from the study) or the study was terminated as scheduled.
• Species: Mice • Strain: Balb/C immunodeficient mice • Source: Harlan • Gender and number: Female, 36 • Age: About 6-8 weeks old at the start of the study. • Identification: Each mouse was given a unique identity number. • Animal husbandry: On receipt, all animals were examined for external signs of ill-health and all unhealthy animals were excluded from further evaluation. Animals were housed in groups of three under specific pathogen free (spf) conditions, in a thermostatically monitored room (22±4° C.) in an animal unit. Animals were equilibrated under standard animal house conditions for at least 72 hours prior to use. The health status of the animals was monitored throughout this period and the suitability of each animal for experimental use was assessed prior to study start. • Housing Animals were housed in groups of 3 per cage in a controlled room, to ensure correct temperature, humidity and 12 hour light/dark cycle for the duration of the study. • Diet: Irradiated pellet diet and water was available ad libitum throughout the holding, acclimatisation and post-dose periods. Compound and Reagents • H460cell line (ATCC HTB-177). • Phosphate buffered saline (“PBS”). • Test compounds: Au—Pt bi-metallic nanocrystal suspensions. • Positive control compound: cisplatin. • Negative control compound: drinking water. Treatment Groups and Dosages • Negative Control Group 1: Days 0-21, given normal drinking water. • Positive Control Group 2: Days 0-21, given normal drinking water; and given a one-time cisplatin dose of 8 mg/kg by intraperitoneal injection (“IP”) on day 0. • Treatment Group 3-5: Days 0-21, given test compounds as their drinking water. Protocol A: Preparation and Growth of Donor Tumors
(§1) a.) Preparation of Tumor Cells • 1. Cells were grown in complete medium and all contaminants were excluded. • 2. When the cells were approximately 70-80% confluent, then approximately 3-4 hours before harvesting, the old cell growth medium was replaced with fresh cell growth medium to remove any dead and/or detached cells. • 3. […] The cells were then placed on a glass slide in the traditional manner and were counted using a hemocytometer. • 5. […]

HCT116 tumors [1] = format: in vivo
Source text: (§2) Female Balb/C, immunologically deficient recipient mice (6-8 weeks old) had tumors implanted therein. The Balb/C donor mice were used to grow HCT116 tumors, which tumors were excised therefrom and subsequently sectioned into small fragments about 2 mm^3 in size. The Balb/C recipient mice were given brief general anesthesia and then one HCT116 2 mm^3 tumor fragment from the donor mice was implanted into each of the left and right flank of the recipient mice using a trocar needle. Once the tumors in the recipient mice had reached a measurable size of about 4×4 mm, as measured by calipers placed against each mouse skin, the recipient mice were randomly placed into treatment groups, 8 per group and the oral treatment was started. 8 mice were in the positive control group (“Cisplatin”) and 8 mice were in the negative control group and received only water (“Control”). Treatment was given exclusively via the drinking bottle shared between the mice in each Treatment group. Cisplatin was given by intraperitoneal injection on day 0. Tumor size was assessed five times per week using a pair of calipers and mouse weight was also obtained by a scale, such measuring occurring until the mouse died (or was removed from the study) or the study was terminated as scheduled.
• Species: Mice • Strain: Balb/C immunodeficient mice • Source: Harlan • Gender and number: Female, 36 • Age: About 6-8 weeks old at the start of the study. • Identification: Each mouse was given a unique identity number. • Animal husbandry: On receipt, all animals were examined for external signs of ill-health and all unhealthy animals were excluded from further evaluation. Animals were housed in groups of three under specific pathogen free (spf) conditions, in a thermostatically monitored room (22±4° C.) in an animal unit. Animals were equilibrated under standard animal house conditions for at least 72 hours prior to use. The health status of the animals was monitored throughout this period and the suitability of each animal for experimental use was assessed prior to study start. • Housing Animals were housed in groups of 3 per cage in a controlled room, to ensure correct temperature, humidity and 12 hour light/dark cycle for the duration of the study. • Diet: Irradiated pellet diet and water was available ad libitum throughout the holding, acclimatisation and post-dose periods. Compound and Reagents • HCT 116 cell line (ATCC CCL-247). • Phosphate buffered saline (“PBS”). • Test compounds: gold nanocrystal suspension NE-28-10X (NE-28 produced equivalent to • NE10214 in Example 1) Concentrated 10×. • Positive control compound: cisplatin. • Negative control compound: drinking water. Treatment Groups and Dosages • Negative Control Group 1: Days 0-21, given normal drinking water. • Positive Control Group 2: Days 0-21, given normal drinking water; and given a one-time cisplatin dose of 8 mg/kg by intraperitoneal injection (“IP”) on day 0. • Treatment Group 3: Days 0-21, given test compounds as their drinking water. Protocol A: Preparation and Growth of Donor Tumors
as §1

HCT116 tumors [2] = experiment: Xenograft cancer study in mice, HCT116, oral administration (Example 20d); format: in vivo, mouse
Source text: as §2
• Species: Mice • Strain: Balb/C immunodeficient mice • Source: Harlan • Gender and number: Female, 36 • Age: About 6-8 weeks old at the start of the study. • Identification: Each mouse was given a unique identity number. • Animal husbandry: On receipt, all animals were examined for external signs of ill-health and all unhealthy animals were excluded from further evaluation. Animals were housed in groups of three under specific pathogen free (spf) conditions, in a thermostatically monitored room (22±4° C.) in an animal unit. Animals were equilibrated under standard animal house conditions for at least 72 hours prior to use. The health status of the animals was monitored throughout this period and the suitability of each animal for experimental use was assessed prior to study start. • Housing Animals were housed in groups of 3 per cage in a controlled room, to ensure correct temperature, humidity and 12 hour light/dark cycle for the duration of the study. • Diet: Irradiated pellet diet and water was available ad libitum throughout the holding, acclimatisation and post-dose periods. Compound and Reagents • HCT 116 cell line (ATCC CCL-247). • Phosphate buffered saline (“PBS”). • Test compounds: Au—Pt bi-metallic nanocrystal suspensions. • Positive control compound: cisplatin. • Negative control compound: drinking water. Treatment Groups and Dosages • Negative Control Group 1: Days 0-21, given normal drinking water. • Positive Control Group 2: Days 0-21, given normal drinking water; and given a one-time cisplatin dose of 8 mg/kg by intraperitoneal injection (“IP”) on day 0. • Treatment Group 3-5: Days 0-21, given test compounds as their drinking water. Protocol A: Preparation and Growth of Donor Tumors
as §1

[3] = tumor doubling time, H460 xenograft, oral
[4] = HCT116 xenograft, oral, versus Group 1 (Control)
[5] = tumor doubling time, HCT116 xenograft, oral

## N.N.[Cl][Pt][Cl] [cisplatin]
H460 tumors; H460 xenograft, oral, versus Group 1 (Control)
  Growth Delay: 2.5 days
H460 tumors; mouse, in vivo, po
  Maximum % Weight Loss: 6%
  Maximum % Weight Loss, day (d) of maximum: 3 days
H460 tumors; [3]
  Mean Time to RTV2: 5.0 days
  Median Time to RTV2: 5.0 days
HCT116 tumors [1]; [4]
  Growth Delay: 0.9 days
HCT116 tumors [1]; mouse, in vivo, po
  Maximum % Weight Loss: 5%
  Maximum % Weight Loss, day (d) of maximum: 2 days
HCT116 tumors [1]; [5]
  Mean Time to RTV2: 3.9 days
  Median Time to RTV2: 3.5 days
HCT116 tumors [2]; [4]
  Growth Delay: 1.7 days
HCT116 tumors [2]; mouse, in vivo, po
  Maximum % Weight Loss: 5%
  Maximum % Weight Loss, day (d) of maximum: 7 days
HCT116 tumors [2]; [5]
  Mean Time to RTV2: 5.2 days
  Median Time to RTV2: 5.2 days

— patent US9387225B2, “Gold-platinum based bi-metallic nanocrystal suspensions, electrochemical manufacturing processes therefor and uses for the same” (GR INTELLECTUAL RESERVE, LLC, a Nevada LLC, priority 2011, dated 2016)
